The text below walks through data of patent US10421779B2, “Carbazole compound having anti-virus activity” (priority 2016, dated 2019).

Holding throughout (type): cell-based
For assay [1], the system named is hepatitis C virus mutant L31V of the NS5A region. Description: Efficacy on resistant mutant L31V. Conditions: read-out: EC50 L31V. An excerpt: (§1) As a mutant resistant to hepatitis C virus, L31V and Y93H of the NS5A region, and double mutants thereof were applied.
Assay [2] concerns hepatitis C virus mutant Y93H of the NS5A region. In words: Efficacy on resistant mutant Y93H. Conditions: read-out: EC50 Y93H.
Description: as §1

Assay [3] concerns HCV genotype 1 b (HCV replicon system). Description: HCV replicon system genotype 1b, Renilla luciferase activity. Conditions: Hepatitis C virus, 72 h; HCV genotype 1b replicon, Rluc, 3 days; read-out: Replicon EC50 1b type. The procedure: (§2) From human liver cells (Huh7.5.1 cell) infected by hepatitis C virus, the anti-virus effects by the compound of the present invention were measured. From HCV genotype 1 b (HCV replicon system), genotype 2a (HCV cell culture system, HCVcc), and genotype 3a, the EC50 values were measured.
In order to measure the EC50 value from HCV genotype 1 b, the degrees of HCV replication inhibitory activities of an experimental compound were measured. The EC50 value was measured by treating the experimental compound with the HCV replicon systems (genotype 1 b) having Renilla luciferase (Rluc) genes and genotype 1 b non-structure genes under various concentration conditions to compare the activity degree of the luciferase after 3 days elapsed time with that of the control.
For orientation: A replicon is a self-replicating genome or part of one, used to study replication in cells.

Assay [4] relates to HCV genotype 3a (HCV replicon system). Description: HCV replicon system genotype 3a, firefly luciferase activity. Conditions: Hepatitis C virus, 72 h; HCV genotype 3a replicon, Fluc, 3 days; read-out: Replicon EC50 3a type. The method, then:
as §2
In order to measure the EC50 value from genotype 3a, the value was measured through the luciferase activity. A HCV replicon system having firefly luciferase (Fluc) genes and genotype 3a non-structure genes was used. The HCV replicon system having the genes as described above was used to treat the experimental compound under various concentration conditions, and then 3 days later, the EC50 value was measured by comparing the luciferase activity with that of the control.

Assay [5] concerns hepatitis C virus double mutant L31V and Y93H of the NS5A region. In words: Efficacy on resistant double mutant (L31V and Y93H). Conditions: read-out: EC50 Double mutant.
Description: as §1

Assay [6] has as its system HCV genotype 2a (HCV cell culture system, HCVcc). In words: HCVcc genotype 2a JFH1 (JFH 5a-Rluc) virus in Huh7.5.1 cells, luciferase assay. Conditions: Hepatitis C virus, Huh-7.5.1, 72 h, HCV genotype 2a JFH 5a-Rluc, 3 days, read-out: Replicon EC50 2a type. The procedure:
as §2
In order to measure the EC50 value from HCV genotype 2a, a luciferase assay was used. A JFH1 clone (JFH 5a-Rluc) virus constructed to have a Renilla luciferase enzyme (Rluc) gene in NS5A protein was infected with Huh7.5.1 cell being a host cell, and then the EC50 value was measured by taking cells grown for 3 days by treating the experimental compound under various concentration conditions, and analyzing the activity degree of the luciferase.

Where only a bound is given, the exact number is not on record here.

By EC50 is commonly meant the concentration giving half of the maximal effect. Turning to `CCCCOc1ccc(Cn2c3cc(NC(=O)[C@@H]4CCCN4C(=O)[C@H](NC(=O)OC)c4ccccc4)ccc3c3ccc(NC(=O)[C@@H]4CCCN4C(=O)[C@H](NC(=O)OC)c4ccccc4)cc32)cc1` [Example 36, dimethyl ((1R,1′R)-((2S,2′S)-(((9-(4-butoxybenzyl)-9H-carbazole-2,7-diyl)bis(azanediyl))bis(carbonyl))bis(pyrrolidine-2,1-diyl))bis(2-oxo-1-phenylethane-2,1-diyl))dicarbamate], the EC50 is 0.1 to 1 nM in assay [1], 100 to 1000 nM in assay [2], 0.00326 nM in assay [3] and 0.0126 nM in assay [4].

Regarding `COC(=O)N[C@H](C(=O)N1CCC[C@H]1c1nc(-c2ccc(-c3ccc(-c4c[nH]c([C@@H]5CCCN5C(=O)[C@@H](NC(=O)OC)C(C)C)n4)cc3)cc2)c[nH]1)C(C)C` [BMS-790052, reference compound], the results for the EC50 in assay [1], in assay [5] and in assay [2] were 0.1 to 1 nM, more than 1000 nM and 1 to 10 nM, respectively.

As to `COC(=O)N[C@@H](C(=O)N1CCC[C@H]1C(=O)Nc1ccc2c3ccc(NC(=O)[C@@H]4CCCN4C(=O)[C@H](NC(=O)OC)c4ccccc4)cc3n(CCCCCCCCCCN3CCOCC3)c2c1)c1ccccc1` [Example 34, dimethyl ((1R,1′R)-((2S,2′S)-(((9-(10-morpholinodecyl)-9H-carbazole-2,7-diyl)bis(azanediyl))bis(carbonyl))bis(pyrrolidine-2,1-diyl))bis(2-oxo-1-phenylethane-2,1-diyl))carbamate], the EC50 in assay [1] was less than 0.1 nM; in assay [2], 100 to 1000 nM; in assay [3], 0.01 to 0.1 nM; in assay [6], 1 to 10 nM; in assay [4] it was 0.01 to 0.1 nM.

Consider `CCCCCCCCCCCCn1c2cc(NC(=O)[C@@H]3CCCN3C(=O)[C@H](NC(=O)OC)c3ccccc3)ccc2c2ccc(NC(=O)[C@@H]3CCCN3C(=O)[C@H](NC(=O)OC)c3ccccc3)cc21` [Example 27, dimethyl ((1R,1′R)-((2S,2′S)-(((9-dodecyl-9H-carbazole-2,7-diyl)bis(azanediyl))bis(carbonyl))bis(pyrrolidine-2,1-diyl))bis(2-oxo-1-phenylethane-2,1-diyl))dicarbamate], for which the values for the EC50 in assay [1], in assay [3] and in assay [6] were 0.1 to 1 nM, 0.00185 nM and 10 to 100 nM, respectively.

In the case of `COC(=O)N[C@@H](C(=O)N1CCC[C@H]1C(=O)Nc1ccc2c3ccc(NC(=O)[C@@H]4CCCN4C(=O)[C@H](NC(=O)OC)c4ccccc4)cc3n(Cc3cccc(OC4CCCC4)c3)c2c1)c1ccccc1` [Example 39, dimethyl ((1R,1′R)-((2S,2′S)-(((9-(3-(cyclopentyloxy)benzyl)-9H-carbazole-2,7-diyl)bis(azanediyl))bis(carbonyl))bis(pyrrolidine-2,1-diyl))bis(2-oxo-1-phenylethane-2,1-diyl))dicarbamate], the EC50 is 0.1 to 1 nM in assay [1], 100 to 1000 nM in assay [2], 0.00113 nM in assay [3] and 0.00638 nM in assay [4].

In the case of `CCCCCCCCn1c2cc(NC(=O)[C@@H]3CCCN3C(=O)[C@H](NC(=O)OC)c3ccccc3)ccc2c2ccc(NC(=O)[C@@H]3CCCN3C(=O)[C@H](NC(=O)OC)c3ccccc3)cc21` [Example 26, dimethyl ((1R,1′R)-((2S,2′S)-(((9-octyl-9H-carbazole-2,7-diyl)bis(azanediyl))bis(carbonyl))bis(pyrrolidine-2,1-diyl))bis(2-oxo-1-phenylethane-2,1-diyl))dicarbamate], the EC50 in assay [1] is 1 to 10 nM; in assay [3], 0.00792 nM; in assay [6], 10 to 100 nM.

Regarding `CCCCn1c2cc(NC(=O)[C@@H]3CCCN3C(=O)[C@H](NC(=O)OC)c3ccccc3)ccc2c2ccc(-c3c[nH]c([C@@H]4CCCN4C(=O)[C@@H](NC(=O)OC)C(C)C)n3)cc21` [Example 52, methyl ((R)-2-((S)-2-((9-butyl-7-(2-((S)-1-((methoxycarbonyl)-L-valyl)pyrrolidine-2-yl)-1H-imidazole-4-yl)-9H-carbazole-2-yl)carbamoyl)pyrrolidine-1-yl)-2-oxo-1-phenylethyl)carbamate], the EC50 turned out to be 0.0123 nM in assay [3], 0.171 nM in assay [6] and 0.148 nM in assay [4].

In the case of `COCCOc1cccc(Cn2c3cc(NC(=O)[C@@H]4CCCN4C(=O)[C@H](NC(=O)OC)c4ccccc4)ccc3c3ccc(NC(=O)[C@@H]4CCCN4C(=O)[C@H](NC(=O)OC)c4ccccc4)cc32)c1` [Example 41, dimethyl ((1R,1′R)-((2S,2′S)-(((9-(3-(2-methoxyethoxy)benzyl)-9H-carbazole-2,7-diyl)bis(azanediyl))bis(carbonyl))bis(pyrrolidine-2,1-diyl))bis(2-oxo-1-phenylethane-2,1-diyl))dicarbamate], the EC50 was 0.1 to 1 nM in assay [1], more than 1000 nM in assay [2], 0.00965 nM in assay [3] and 0.0419 nM in assay [4].

As for `CCCCCCOc1ccc(Cn2c3cc(NC(=O)[C@@H]4CCCN4C(=O)[C@H](NC(=O)OC)c4ccccc4)ccc3c3ccc(NC(=O)[C@@H]4CCCN4C(=O)[C@H](NC(=O)OC)c4ccccc4)cc32)cc1` [Example 31, dimethyl ((1R,1′R)-((2S,2′S)-(((9-(4-(hexyloxy)benzyl)-9H-carbonyl-2,7-diyl)bis(azanediyl))bis(carbonyl))bis(pyrrolidine-2,1-diyl))bis(2-oxo-1-phenylethane-2,1-diyl))dicarbamate], the EC50 is less than 0.1 nM in assay [1]; 10 to 100 nM in assay [2]; approximately 0.01 nM in assay [3]; 1 to 10 nM in assay [6]; approximately 0.01 nM in assay [4].

Regarding `CCCCCCCCCC(c1ccccc1)n1c2cc(NC(=O)[C@@H]3CCCN3C(=O)[C@H](NC(=O)OC)c3ccccc3)ccc2c2ccc(NC(=O)[C@@H]3CCCN3C(=O)[C@H](NC(=O)OC)c3ccccc3)cc21` (stereo partly drawn) [Example 42, dimethyl ((1R,1′R)-((2S,2′S)-(((9-(1-phenyldecyl)-9H-carbazole-2,7-diyl)bis(azanediyl))bis(carbonyl))bis(pyrrolidine-2,1-diyl))bis(2-oxo-1-phenylethane-2,1-diyl))dicarbamate], the EC50 is 0.1 to 1 nM in assay [1]; 100 to 1000 nM in assay [2]; 0.00124 nM in assay [3]; 10 to 100 nM in assay [6]; 0.0329 nM in assay [4].

In the case of `COC(=O)N[C@@H](C(=O)N1CCC[C@H]1C(=O)Nc1ccc2c3ccc(NC(=O)[C@@H]4CCCN4C(=O)[C@H](NC(=O)OC)c4ccccc4)cc3n(Cc3ccc(C(F)(F)F)cc3)c2c1)c1ccccc1` [Example 45, dimethyl ((1R,1′R)-((2S,2′S)-(((9-(4-(trifluoromethyl)benzyl)-9H-carbazole-2,7-diyl)bis(azanediyl))bis(carbonyl))bis(pyrrolidine-2,1-diyl))bis(2-oxo-1-phenylethane-2,1-diyl))dicarbamate], the EC50 in assay [3] was approximately 0.01 nM; in assay [6] it was more than 10 nM; in assay [4], 0.199 nM.

With `CCCC(c1ccccc1)n1c2cc(NC(=O)[C@@H]3CCCN3C(=O)[C@H](NC(=O)OC)c3ccccc3)ccc2c2ccc(NC(=O)[C@@H]3CCCN3C(=O)[C@H](NC(=O)OC)c3ccccc3)cc21` (stereo partly drawn) [Example 28, dimethyl ((1R,1′R)-((2S,2′S)-(((9-(1-phenylbutyl)-9H-carbazole-2,7-diyl)bis(azanediyl))bis(carbonyl))bis(pyrrolidine-2,1-diyl))bis(2-oxo-1-phenylethane-2,1-diyl))dicarbamate], the EC50 was less than 0.1 nM in assay [1], 0.00452 nM in assay [3] and 1 to 10 nM in assay [6].
